Read-outs that look alike come from different tables or passages of the source.
Tests used:
Assay type in all cases: biochemical
[1] = molecular target: CDK6/CCND1 (Homo sapiens, UniProt Q00534); experiment: CDK6 homogeneous time-resolved fluorescence (HTRF) kinase assay; conditions: CDK6/CCND; x = IC50 >250 nM; read-out: CDK6/CCND IC50 (>250 nM column)
Procedure, shortened: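 1 nM enzyme, 1 mM ATP, 50 nM ULight-4E-BP1 (Thr37/46) peptide, 1% DMSO; 20 min compound preincubation, 60 min reaction, 23 °C. EDTA stop, 2 nM Eu-anti-phospho-4E-BP1 antibody 60 min. TR-FRET 665 nm (or 665/615 ratio); IC50 from 11-point half-log titration, top 10 μM.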

[2] = molecular target: CDK4/CCND3 (Homo sapiens, UniProt P11802); experiment: CDK4 homogeneous time-resolved fluorescence (HTRF) kinase assay; conditions: CDK4/CCND; x = IC50 >250 nM; read-out: CDK4/CCND IC50 (>250 nM column)
Procedure, shortened: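 Inhibition of CDK4/CCND3 (1.5 nM) was measured at high ATP (1 mM) using 50 nM ULight-labelled 4E-BP1 Thr37/46 peptide; detection used 2 nM europium anti-phospho antibody after EDTA quench. IC50 values came from 11-point half-log titrations typically starting at 10 μM.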

[3] = molecular target: CDK1/CCNB1 (Homo sapiens, UniProt P06493); experiment: CDK1 homogeneous time-resolved fluorescence (HTRF) kinase assay; conditions: CDK1/CCNB; x = IC50 >250 nM; read-out: CDK1/CCNB IC50 (>250 nM column)
Procedure, shortened: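 Kinase activity is measured as Lance signal (665 nm, or 665/615 nm ratio) from europium-labelled anti-phospho-Thr37/46 antibody binding ULight-4E-BP1 peptide. Reactions contain 0.5 nM enzyme, 1 mM ATP, 1% DMSO and run 60 min at 23 °C before EDTA quench.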

[4] = molecular target: CDK2/CCNE1 (Homo sapiens, UniProt P24941); experiment: CDK2 homogeneous time-resolved fluorescence (HTRF) kinase assay; conditions: CDK2/CCNE
Procedure, shortened: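 3 nM CDK2/CCNE1 was preincubated with compound for 20 min at 23 °C in HEPES buffer (pH not stated), then reacted 60 min with 1 mM ATP and 50 nM ULight-4E-BP1 (Thr37/46) peptide. After EDTA stop, Eu-anti-phospho-4E-BP1 antibody (2 nM) was added for 60 min and TR-FRET read at 665 nm.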

[5] = x = IC50 <25 nM, read-out: CDK2/CCNE IC50 (<25 nM)
[6] = x = IC50 25-250 nM, read-out: CDK2/CCNE IC50 (25-250 nM)

Chain of CDK1/CCNB1 (P06493 whole entry): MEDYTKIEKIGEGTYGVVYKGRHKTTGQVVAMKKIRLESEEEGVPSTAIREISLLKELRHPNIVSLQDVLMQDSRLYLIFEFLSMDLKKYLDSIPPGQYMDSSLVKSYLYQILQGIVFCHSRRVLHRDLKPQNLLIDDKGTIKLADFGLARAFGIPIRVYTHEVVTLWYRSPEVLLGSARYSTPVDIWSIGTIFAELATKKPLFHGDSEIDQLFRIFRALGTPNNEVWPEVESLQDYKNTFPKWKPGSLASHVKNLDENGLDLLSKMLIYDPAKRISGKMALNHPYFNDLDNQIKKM
Chain of CDK1/CCNB1 (P14635 whole entry partner): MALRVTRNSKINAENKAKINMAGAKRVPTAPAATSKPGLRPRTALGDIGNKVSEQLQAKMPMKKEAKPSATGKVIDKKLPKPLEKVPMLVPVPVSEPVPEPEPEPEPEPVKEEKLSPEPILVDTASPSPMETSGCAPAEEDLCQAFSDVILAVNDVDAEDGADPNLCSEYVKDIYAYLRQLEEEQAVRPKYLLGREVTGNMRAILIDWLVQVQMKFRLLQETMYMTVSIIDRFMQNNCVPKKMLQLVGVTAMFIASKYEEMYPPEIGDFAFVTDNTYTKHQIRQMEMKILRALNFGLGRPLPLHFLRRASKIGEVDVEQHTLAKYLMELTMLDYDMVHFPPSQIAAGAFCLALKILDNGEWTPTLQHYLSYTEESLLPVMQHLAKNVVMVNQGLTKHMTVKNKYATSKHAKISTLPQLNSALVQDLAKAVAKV
Chain of CDK4/CCND3 (P11802 whole entry): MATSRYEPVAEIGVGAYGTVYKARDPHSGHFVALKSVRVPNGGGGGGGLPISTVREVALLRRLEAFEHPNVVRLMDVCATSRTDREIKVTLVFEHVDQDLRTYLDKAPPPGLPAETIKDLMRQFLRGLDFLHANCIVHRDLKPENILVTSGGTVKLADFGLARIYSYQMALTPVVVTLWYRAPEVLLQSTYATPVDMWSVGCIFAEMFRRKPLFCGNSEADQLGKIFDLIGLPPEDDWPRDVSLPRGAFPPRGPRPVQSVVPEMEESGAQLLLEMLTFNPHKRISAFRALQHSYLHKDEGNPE
Chain of CDK4/CCND3 (P30281 whole entry partner): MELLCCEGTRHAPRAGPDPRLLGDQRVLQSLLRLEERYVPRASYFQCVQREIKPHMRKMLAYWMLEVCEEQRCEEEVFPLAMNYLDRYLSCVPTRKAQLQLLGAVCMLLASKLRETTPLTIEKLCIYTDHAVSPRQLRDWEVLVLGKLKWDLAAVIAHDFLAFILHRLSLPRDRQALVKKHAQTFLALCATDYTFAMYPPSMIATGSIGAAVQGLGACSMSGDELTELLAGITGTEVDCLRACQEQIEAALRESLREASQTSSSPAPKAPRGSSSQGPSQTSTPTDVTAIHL
Chain of CDK6/CCND1 (Q00534 whole entry): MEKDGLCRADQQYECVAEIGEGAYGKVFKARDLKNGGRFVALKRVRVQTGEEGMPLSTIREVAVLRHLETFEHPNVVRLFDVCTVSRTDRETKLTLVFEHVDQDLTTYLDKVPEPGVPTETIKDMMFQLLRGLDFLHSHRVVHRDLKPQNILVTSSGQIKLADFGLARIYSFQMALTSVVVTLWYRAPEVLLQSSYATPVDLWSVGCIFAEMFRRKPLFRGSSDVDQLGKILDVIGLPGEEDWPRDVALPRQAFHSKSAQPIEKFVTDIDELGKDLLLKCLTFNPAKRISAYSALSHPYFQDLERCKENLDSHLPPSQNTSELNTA
Chain of CDK6/CCND1 (P24385 whole entry partner): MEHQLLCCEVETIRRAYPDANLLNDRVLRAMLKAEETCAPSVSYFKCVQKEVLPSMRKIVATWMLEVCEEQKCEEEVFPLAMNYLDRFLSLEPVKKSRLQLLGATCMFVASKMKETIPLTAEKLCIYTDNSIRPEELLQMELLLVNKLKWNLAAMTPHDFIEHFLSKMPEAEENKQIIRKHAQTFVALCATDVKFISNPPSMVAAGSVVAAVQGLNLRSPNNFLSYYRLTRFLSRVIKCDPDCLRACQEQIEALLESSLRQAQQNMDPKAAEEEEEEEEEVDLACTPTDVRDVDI

Row | IC50 [1] [nM] | IC50 [2] [nM] | IC50 [3] [nM] | IC50 [4, 5] [nM] | IC50 [4, 6] [nM] | IC50 ([4]; x = IC50 >250 nM, read-out: CDK2/CCNE IC50 (>250 nM column)) [nM] | SMILES
1 | > 250 | > 250 | > 250 | < 25 |  |  | CS(=O)(=O)c1ccc(Nc2cc3c(C#Cc4cc(N)ncc4F)nccc3cn2)cc1 [Ex 557, 5-((2-amino-5-fluoropyridin-4-yl)ethynyl)-N-(4-(methylsulfonyl)phenyl)-2,6-naphthyridin-3-amine]
2 | > 250 | > 250 | > 250 |  | 25 to 250 |  | CS(=O)(=O)c1ccc(Nc2cc3c(C#Cc4ccc(N)nc4Cl)nccc3cn2)cc1 [Ex 558, 5-((6-amino-2-chloropyridin-3-yl)ethynyl)-N-(4-(methylsulfonyl)phenyl)-2,6-naphthyridin-3-amine]
3 | > 250 | > 250 | > 250 |  | 25 to 250 |  | CS(=O)(=O)c1ccc(Nc2cc3c(C#Cc4cc(N)n[nH]4)nccc3cn2)cc1 [Ex 559, 5-((3-amino-1H-pyrazol-5-yl)ethynyl)-N-(4-(methylsulfonyl)phenyl)-2,6-naphthyridin-3-amine]
4 | > 250 | > 250 | > 250 |  | 25 to 250 |  | CS(=O)(=O)c1ccc(Nc2cc3c(C#Cc4ccc(F)c(O)c4)nccc3cn2)cc1 [Ex 560, 2-fluoro-5-((7-((4-(methylsulfonyl)phenyl)amino)-2,6-naphthyridin-1-yl)ethynyl)phenol]
5 | > 250 | > 250 | > 250 |  | 25 to 250 |  | CS(=O)(=O)c1ccc(Nc2cc3c(C#Cc4n[nH]c5ncccc45)nccc3cn2)cc1 [Ex 561, 5-((1H-pyrazolo[3,4-b]pyridin-3-yl)ethynyl)-N-(4-(methylsulfonyl)phenyl)-2,6-naphthyridin-3-amine]
6 | > 250 | > 250 | > 250 |  | 25 to 250 |  | CC(C)(O)Cn1ncc2c(C#Cc3nccc4cnc(Nc5ccc(S(C)(=O)=O)cc5)cc34)cncc21 [Ex 562, 2-methyl-1-(4-((7-((4-(methylsulfonyl)phenyl)amino)-2,6-naphthyridin-1-yl)ethynyl)-1H-pyrazolo[3,4-c]pyridin-1-yl)propan-2-ol]
7 | > 250 | > 250 | > 250 |  | 25 to 250 |  | CS(=O)(=O)c1ccc(Nc2cc3c(C#Cc4ccc(C(F)(F)F)cc4N)nccc3cn2)cc1 [Ex 563, 5-((2-amino-4-(trifluoromethyl)phenyl)ethynyl)-N-(4-(methylsulfonyl)phenyl)-2,6-naphthyridin-3-amine]
8 | > 250 | > 250 | > 250 |  | 25 to 250 |  | Cc1c(C#N)cccc1C#Cc1nccc2cnc(Nc3ccc(S(C)(=O)=O)cc3)cc12 [Ex 564, 2-methyl-3-((7-((4-(methylsulfonyl)phenyl)amino)-2,6-naphthyridin-1-yl)ethynyl)benzonitrile]
9 | > 250 | > 250 | > 250 |  | 25 to 250 |  | Cc1ncccc1C#Cc1nccc2cnc(Nc3ccc(S(C)(=O)=O)cc3)cc12 [Ex 565, 5-((2-methylpyridin-3-yl)ethynyl)-N-(4-(methylsulfonyl)phenyl)-2,6-naphthyridin-3-amine]
10 | > 250 | > 250 | > 250 |  | 25 to 250 |  | CS(=O)(=O)c1ccc(Nc2cc3c(C#Cc4ccc(N5CCOCC5)nc4)nccc3cn2)cc1 [Ex 566, N-(4-(methylsulfonyl)phenyl)-5-((6-morpholinopyridin-3-yl)ethynyl)-2,6-naphthyridin-3-amine]
11 | > 250 | > 250 | > 250 | < 25 |  |  | CS(=O)(=O)c1ccc(Nc2cc3c(C#Cc4ccc(C#N)cc4N)nccc3cn2)cc1 [Ex 567, 3-amino-4-((7-((4-(methylsulfonyl)phenyl)amino)-2,6-naphthyridin-1-yl)ethynyl)benzonitrile]
12 | > 250 | > 250 | > 250 |  |  | > 250 | COc1cc(C#Cc2nccc3cnc(Nc4ccc(S(C)(=O)=O)cc4)cc23)ncn1 [Ex 568, 5-((6-methoxypyrimidin-4-yl)ethynyl)-N-(4-(methylsulfonyl)phenyl)-2,6-naphthyridin-3-amine]
13 | > 250 | > 250 | > 250 |  | 25 to 250 |  | CS(=O)(=O)c1ccc(Nc2cc3c(C#Cc4cc(Cl)ncc4N)nccc3cn2)cc1 [Ex 569, 5-((5-amino-2-chloropyridin-4-yl)ethynyl)-N-(4-(methylsulfonyl)phenyl)-2,6-naphthyridin-3-amine]
14 | > 250 | > 250 | > 250 | < 25 |  |  | Cc1ccc(C#Cc2nccc3cnc(Nc4ccc(S(C)(=O)=O)cc4)cc23)c(N)c1 [Ex 570, 5-((2-amino-4-methylphenyl)ethynyl)-N-(4-(methylsulfonyl)phenyl)-2,6-naphthyridin-3-amine]
15 | > 250 | > 250 | > 250 |  | 25 to 250 |  | CS(=O)(=O)c1ccc(Nc2cc3c(C#Cc4cc(F)cc(C#N)c4)nccc3cn2)cc1 [Ex 571, 3-fluoro-5-((7-((4-(methylsulfonyl)phenyl)amino)-2,6-naphthyridin-1-yl)ethynyl)benzonitrile]
16 | > 250 | > 250 | > 250 | < 25 |  |  | CS(=O)(=O)c1ccc(Nc2cc3c(C#Cc4ccncc4N)nccc3cn2)cc1 [Ex 572, 5-((3-aminopyridin-4-yl)ethynyl)-N-(4-(methylsulfonyl)phenyl)-2,6-naphthyridin-3-amine]
17 | > 250 | > 250 | > 250 |  | 25 to 250 |  | CS(=O)(=O)c1ccc(Nc2cc3c(C#Cc4n[nH]c5ccccc45)nccc3cn2)cc1 [Ex 573, 5-((1H-indazol-3-yl)ethynyl)-N-(4-(methylsulfonyl)phenyl)-2,6-naphthyridin-3-amine]
18 | > 250 | > 250 | > 250 | < 25 |  |  | CS(=O)(=O)c1ccc(Nc2cc3c(C#Cc4cnc5cc[nH]c5c4)nccc3cn2)cc1 [Ex 574, 5-((1H-pyrrolo[3,2-b]pyridin-6-yl)ethynyl)-N-(4-(methylsulfonyl)phenyl)-2,6-naphthyridin-3-amine]
19 | > 250 | > 250 | > 250 |  | 25 to 250 |  | CS(=O)(=O)c1ccc(Nc2cc3c(C#Cc4cncc(Cl)c4N)nccc3cn2)cc1 [Ex 575, 5-((4-amino-5-chloropyridin-3-yl)ethynyl)-N-(4-(methylsulfonyl)phenyl)-2,6-naphthyridin-3-amine]
20 | > 250 | > 250 | > 250 |  | 25 to 250 |  | CS(=O)(=O)c1ccc(Nc2cc3c(C#Cc4c(N)cccc4Cl)nccc3cn2)cc1 [Ex 576, 5-((2-amino-6-chlorophenyl)ethynyl)-N-(4-(methylsulfonyl)phenyl)-2,6-naphthyridin-3-amine]
21 | > 250 | > 250 | > 250 |  | 25 to 250 |  | CS(=O)(=O)c1ccc(Nc2cc3c(C#Cc4cnc5ccc(Cl)nn45)nccc3cn2)cc1 [Ex 578, 5-((6-chloroimidazo[1,2-b]pyridazin-3-yl)ethynyl)-N-(4-(methylsulfonyl)phenyl)-2,6-naphthyridin-3-amine]
22 | > 250 | > 250 | > 250 |  | 25 to 250 |  | COc1ncccc1C#Cc1nccc2cnc(Nc3ccc(S(C)(=O)=O)cc3)cc12 [Ex 579, 5-((2-methoxypyridin-3-yl)ethynyl)-N-(4-(methylsulfonyl)phenyl)-2,6-naphthyridin-3-amine]
23 | > 250 | > 250 | > 250 | < 25 |  |  | CS(=O)(=O)c1ccc(Nc2cc3c(C#Cc4ccnc(N)c4Cl)nccc3cn2)cc1 [Ex 580, 5-((2-amino-3-chloropyridin-4-yl)ethynyl)-N-(4-(methylsulfonyl)phenyl)-2,6-naphthyridin-3-amine]
24 | > 250 | > 250 | > 250 |  | 25 to 250 |  | Cc1ccc(C#Cc2nccc3cnc(Nc4ccc(S(C)(=O)=O)cc4)cc23)c(N)n1 [Ex 581, 5-((2-amino-6-methylpyridin-3-yl)ethynyl)-N-(4-(methylsulfonyl)phenyl)-2,6-naphthyridin-3-amine]
